Laboratory results taken from US11524966B1 (Valo Early Discovery, Inc., priority 2017, dated 2022).

target: T1, USP28 (His-tagged USP28-FL-mammalian) (Homo sapiens, UniProt Q96RU2); assay: Ubiquitin-Rhodamine 110 Assay for USP28 Activity, Example A-1(a); type: biochemical; conditions: Ubiquitin-Rhodamine 110 assay, Example A-1(a); read-out: USP28 A-1(a) IC50 range
T1 construct: Expression of USP28 (1-1077)-TEV-6*His (pTT5 vector); made in house; host or cells: Expi293f cells (pTT5 vector)
T1 sequence (Q96RU2 1-1077): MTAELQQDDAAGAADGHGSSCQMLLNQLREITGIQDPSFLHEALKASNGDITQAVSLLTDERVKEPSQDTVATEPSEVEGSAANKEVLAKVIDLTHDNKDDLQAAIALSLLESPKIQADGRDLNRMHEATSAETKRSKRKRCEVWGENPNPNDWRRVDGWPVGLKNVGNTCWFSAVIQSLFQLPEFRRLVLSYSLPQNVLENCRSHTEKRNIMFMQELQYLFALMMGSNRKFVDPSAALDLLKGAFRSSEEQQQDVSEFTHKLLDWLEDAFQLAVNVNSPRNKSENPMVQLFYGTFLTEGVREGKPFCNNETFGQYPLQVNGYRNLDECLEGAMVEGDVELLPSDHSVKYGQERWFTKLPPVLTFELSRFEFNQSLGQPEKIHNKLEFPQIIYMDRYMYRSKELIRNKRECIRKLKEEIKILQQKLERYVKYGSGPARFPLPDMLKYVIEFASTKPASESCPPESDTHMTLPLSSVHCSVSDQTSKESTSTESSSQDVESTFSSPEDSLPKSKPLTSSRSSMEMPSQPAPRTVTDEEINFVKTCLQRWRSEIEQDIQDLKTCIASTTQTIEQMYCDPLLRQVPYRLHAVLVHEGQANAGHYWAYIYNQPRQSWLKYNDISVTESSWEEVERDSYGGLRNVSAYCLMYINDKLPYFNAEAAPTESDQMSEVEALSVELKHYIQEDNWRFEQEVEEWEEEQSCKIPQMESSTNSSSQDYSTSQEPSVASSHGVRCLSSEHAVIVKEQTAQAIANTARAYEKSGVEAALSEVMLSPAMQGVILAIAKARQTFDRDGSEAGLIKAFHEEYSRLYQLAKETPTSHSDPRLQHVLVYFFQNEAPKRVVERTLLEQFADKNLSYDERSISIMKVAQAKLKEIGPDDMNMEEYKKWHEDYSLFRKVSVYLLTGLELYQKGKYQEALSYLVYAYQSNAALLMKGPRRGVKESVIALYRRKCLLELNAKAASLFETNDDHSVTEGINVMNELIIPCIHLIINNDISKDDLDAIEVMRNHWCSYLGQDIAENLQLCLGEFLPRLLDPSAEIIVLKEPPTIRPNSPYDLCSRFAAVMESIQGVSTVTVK
Procedure, shortened: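 Full-length His-tagged human USP28 (1-1077, Expi293f-expressed), […], with 25 nM Ub-Rh110 (<<Km) in pH 8.0 Tris buffer with BME, BGG, Triton X-100. 10-point dilutions (25 μM-1.3 nM), 45 min at room temperature, citric acid stop, fluorescence 485/535 nm; IC50 by 4-parameter fit.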

SMILES | IC50
Cc1ccc2c(N)c(C(=O)N[C@H]3CCc4nc(N5C[C@H](N)[C@@]6(CCCO6)C5)ccc4C3)sc2n1 [Example 393, 3-amino-N-[(6S)-2-[(5R,9S)-9-amino-1-oxa-7-azaspiro[4.4]nonan-7-yl]-5,6,7,8-tetrahydroquinolin-6-yl]-6-methylthieno[2,3-b]pyridine-2-carboxamide] | 50 to 200 nM
Cc1ccc2c(N)c(C(=O)N[C@H]3COc4cc(N5CC6CNC[C@](C)(C5)O6)cc(F)c4C3)sc2n1 [Example 413, 3-amino-N-[(3R)-5-fluoro-7-[(1R)-1-methyl-9-oxa-3,7-diazabicyclo[3.3.1]nonan-3-yl]-3,4-dihydro-2H-1-benzopyran-3-yl]-6-methylthieno[2,3-b]pyridine-2-carboxamide] | 1 to 50 nM
Cc1ccc2c(N)c(C(=O)N[C@H]3COc4cc(N5CC6CNC[C@@](C)(C5)O6)cc(F)c4C3)sc2n1 [Example 414, 3-amino-N-[(3R)-5-fluoro-7-[(1S)-1-methyl-9-oxa-3,7-diazabicyclo[3.3.1]nonan-3-yl]-3,4-dihydro-2H-1-benzopyran-3-yl]-6-methylthieno[2,3-b]pyridine-2-carboxamide] | 50 to 200 nM
CO[C@@H]1CN(c2cc3c(c(F)c2F)C[C@@H](NC(=O)c2sc4nc(C)ccc4c2N)CO3)C[C@H]1N [Example 415, 3-amino-N-[(3R)-7-[(3R,4R)-3-amino-4-methoxypyrrolidin-1-yl]-5,6-difluoro-3,4-dihydro-2H-1-benzopyran-3-yl]-6-methylthieno[2,3-b]pyridine-2-carboxamide] | 1 to 50 nM
CO[C@H]1CN(c2cc3c(c(F)c2F)C[C@@H](NC(=O)c2sc4nc(C)ccc4c2N)CO3)C[C@@H]1N [Example 416, 3-amino-N-[(3R)-7-[(3S,4S)-3-amino-4-methoxpyrrolidin-1-yl]-5,6-difluoro-3,4-dihydro-2H-1-benzopyran-3-yl]-6-methylthieno[2,3-b]pyridine-2-carboxamide] | 1 to 50 nM
Cc1ccc2c(N)c(C(=O)N[C@H]3CCc4cc(N5CCNCC5)c(F)c(F)c4C3)sc2n1 [Example 417, 3-amino-N-[(2S)-7,8-difluoro-6-(piperazin-1-yl)-1,2,3,4-tetrahydronaphthalen-2-yl]-6-methylthieno[2,3-b]pyridine-2-carboxamide] | 200 to 2000 nM
Cc1ccc2c(N)c(C(=O)N[C@@H]3CCc4cc(N5CCNCC5)c(F)c(F)c4C3)sc2n1 [Example 418, 3-amino-N-[(2R)-7,8-difluoro-6-(piperazin-1-yl)-1,2,3,4-tetrahydronaphthalen-2-yl]-6-methylthieno[2,3-b]pyridine-2-carboxamide] | 50 to 200 nM
Cc1cnc2c(N)c(C(=O)N[C@H]3CCc4cc(N5CC6CNCC(C5)O6)ccc4C3)sc2n1 [Example 448, N-((2S)-6-(9-oxa-3,7-diazabicyclo[3.3.1]nonan-3-yl)-1,2,3,4-tetrahydronaphthalen-2-yl)-7-amino-3-methylthieno[2,3-b]pyrazine-6-carboxamide] | 1 to 50 nM
Cc1cnc2c(N)c(C(=O)N[C@@H]3CCc4cc(N5CC6CNCC(C5)O6)ccc4C3)sc2n1 [Example 450, N-((2R)-6-(9-oxa-3,7-diazabicyclo[3.3.1]nonan-3-yl)-1,2,3,4-tetrahydronaphthalen-2-yl)-7-amino-3-methylthieno[2,3-b]pyrazine-6-carboxamide] | 200 to 2000 nM
Cc1ccc2c(N)c(C(=O)N[C@@H]3CCc4cc(N5CC6CNCC(C5)O6)ccc4C3)sc2n1 [Example 451, N-((2R)-6-(9-oxa-3,7-diazabicyclo[3.3.1]nonan-3-yl)-1,2,3,4-tetrahydronaphthalen-2-yl)-3-amino-6-methylthieno[2,3-b]pyridine-2-carboxamide] | 50 to 200 nM
Cc1cnc2c(N)c(C(=O)N[C@@H]3CCc4cc(N5CCCNCC5)ccc4C3)sc2n1 [Example 452, (R)-N-(6-(1,4-diazepan-1-yl)-1,2,3,4-tetrahydronaphthalen-2-yl)-7-amino-3-methylthieno[2,3-b]pyrazine-6-carboxamide] | 200 to 2000 nM
Cc1cnc2c(N)c(C(=O)N[C@H]3CCc4cc(N5CCCNCC5)ccc4C3)sc2n1 [Example 455, (S)-N-(6-(1,4-diazepan-1-yl)-1,2,3,4-tetrahydronaphthalen-2-yl)-7-amino-3-methylthieno[2,3-b]pyrazine-6-carboxamide] | 50 to 200 nM
Cc1cnc2c(N)c(C(=O)N[C@H]3CCc4cc(N5CC6COCC(C5)N6)ccc4C3)sc2n1 [Example 456, N-((2S)-6-(3-oxa-7,9-diazabicyclo[3.3.1]nonan-7-yl)-1,2,3,4-tetrahydronaphthalen-2-yl)-7-amino-3-methylthieno[2,3-b]pyrazine-6-carboxamide] | 50 to 200 nM
Cc1cccc2c(C(=O)N[C@H]3COc4cc(N5CCNCC5)ccc4C3)cnn12 [Example 458, (R)-7-methyl-N-(7-(piperazin-1-yl)chroman-3-yl)pyrazolo[1,5-a]pyridine-3-carboxamide] | 1 to 50 nM
CC(=O)N1CCCc2cc(C(=O)N[C@H]3COc4cc(N5CCNCC5)ccc4C3)ccc21 [Example 459, (R)-1-acetyl-N-(7-(piperazin-1-yl)chroman-3-yl)-1,2,3,4-tetrahydroquinoline-6-carboxamide] | > 2000 nM
O=C(N[C@H]1COc2cc(N3CCNCC3)ccc2C1)c1cnn2ccccc12 [Example 460, (R)-N-(7-(piperazin-1-yl)chroman-3-yl)pyrazolo[1,5-a]pyridine-3-carboxamide] | > 2000 nM
COc1ccn2ncc(C(=O)N[C@H]3COc4cc(N5CCNCC5)ccc4C3)c2c1 [Example 461, (R)-5-methoxy-N-(7-(piperazin-1-yl)chroman-3-yl)pyrazolo[1,5-a]pyridine-3-carboxamide] | > 2000 nM
O=C(N[C@H]1COc2cc(N3CCNCC3)ccc2C1)c1cnn2cc(Cl)ccc12 [Example 462, (R)-6-chloro-N-(7-(piperazin-1-yl)chroman-3-yl)pyrazolo[1,5-a]pyridine-3-carboxamide] | > 2000 nM
Cc1cc(C)n2ncc(C(=O)N[C@H]3COc4cc(N5CCNCC5)ccc4C3)c2n1 [Example 463, (R)-5,7-dimethyl-N-(7-(piperazin-1-yl)chroman-3-yl)pyrazolo[1,5-a]pyrimidine-3-carboxamide] | > 2000 nM
O=C(N[C@H]1COc2cc(N3CCNCC3)ccc2C1)c1cn2nc(Cl)ccc2n1 [Example 464, (R)-6-chloro-N-(7-(piperazin-1-yl)chroman-3-yl)imidazo[1,2-b]pyridazine-2-carboxamide] | > 2000 nM
Cc1ccn2ncc(C(=O)N[C@H]3COc4cc(N5CCNCC5)ccc4C3)c2c1 [Example 465, (R)-5-methyl-N-(7-(piperazin-1-yl)chroman-3-yl)pyrazolo[1,5-a]pyridine-3-carboxamide] | > 2000 nM
O=C(N[C@H]1COc2cc(N3CCNCC3)ccc2C1)c1cnn2cccnc12 [Example 466, (R)-N-(7-(piperazin-1-yl)chroman-3-yl)pyrazolo[1,5-a]pyrimidine-3-carboxamide] | > 2000 nM
O=C(N[C@H]1COc2cc(N3CCNCC3)ccc2C1)c1ccc(NCc2cccc(Cl)c2)nc1 [Example 467, (R)-6-((3-chlorobenzyl)amino)-N-(7-(piperazin-1-yl)chroman-3-yl)nicotinamide] | 200 to 2000 nM
O=C(N[C@H]1COc2cc(N3CCNCC3)ccc2C1)c1ccc(NCc2cccnc2)nc1 [Example 468, (R)-N-(7-(piperazin-1-yl)chroman-3-yl)-6-((pyridin-3-ylmethyl)amino)nicotinamide] | 200 to 2000 nM
O=C(N[C@H]1COc2cc(N3CCNCC3)ccc2C1)c1ccc(NCc2cccc(C(F)(F)F)c2)nc1 [Example 469, (R)-N-(7-(piperazin-1-yl)chroman-3-yl)-6-((3-(trifluoromethyl)benzyl)amino)nicotinamide] | 50 to 200 nM
O=C(N[C@H]1COc2cc(N3CCNCC3)ccc2C1)c1ccc(NCc2ccccn2)nc1 [Example 470, (R)-N-(7-(piperazin-1-yl)chroman-3-yl)-6-((pyridin-2-ylmethyl)amino)nicotinamide] | > 2000 nM
O=C(N[C@H]1COc2cc(N3CCNCC3)ccc2C1)c1ccc(NCc2ccc3c(c2)OCCO3)nc1 [Example 471, (R)-6-(((2,3-dihydrobenzo[b][1,4]dioxin-6-yl)methyl)amino)-N-(7-(piperazin-1-yl)chroman-3-yl)nicotinamide] | 200 to 2000 nM
